# What was measured:
# [1] = 2 subjects; cited from earlier work
# [2] = high dose of 80 mg/day; cited from earlier work
# [3] = test system: Human hepatocytes; experiment: Hepatocytes metabolic stability (HMS), human hepatocytes; type: in vitro ADME; conditions: for Intrinsic hepatic clearance, Human: CLint(liver)
# Experimental: (§1) Assay Example 3: Hepatocytes Metabolic Stability (HMS) Study
# (§2) To test the metabolic stability of the test sample in human and rat hepatocytes.
# (§3) 2.1 Test compound (10 mM), control substance: 7-Ethoxycoumarin (30 mM), 7-Hydroxycoumarin (control substance, 30 mM)
# (§4) 2.3 Buffer System: • Thawing medium: Williams' medium E containing 5% fetal bovine serum, 30% Percoll solution and other auxiliary materials • Incubation medium: Williams medium E (without phenol red) containing 2 mM L-glutamine and 25 mM hydroxyethylpiperazine ethane sulfonic acid. • Stop solution: 200 ng/mL of tosylbutyramide and labetalol in acetonitrile as internal standards. • Dilution solution: Ultrapure water. 3. Method of the Assay • 1) The exact amount of positive control compound was dissolved in dimethyl sulfoxide (DMSO) to give a 30 mM solution • 2) 10 mM test compound and 30 mM positive control compound were diluted to 1 mM and 3 mM with DMSO in 96-well plates. • 3) 1 mM test compound and 3 mM positive control compound was diluted into 100 μM and 300 μM quantification solutions with acetonitrile. • 4) The cryopreserved cells were thawed, dissociated and suspended in culture medium, and then diluted to 0.5×10^6 cells/mL with pre-warmed culture medium. • 5) 198 μL of pre-warmed cell suspension was added to a 96-well plate. • 6) 100 μL of stop solution (acetonitrile containing 200 ng/mL tosylbutyramide and 200 ng/mL labetalol as internal standard) was transferred in a set of pre-labeled 96-well plates. • 7) 2 μL of 100 μM test compound or 300 μM positive control quantitation solution was added in duplicate to each well of the 96-well plate. • 8) The TO samples were mixed to achieve uniform suspension over about 1 min, and then 20 μL of each sample was immediately transferred into wells containing 100 μL of ice-cold stop solution followed by mixing. • 9) All plates were incubated at 37° C. in 5% CO2 in a 95% humidified incubator, with constant shaking at approximately 600 rpm for reaction. • 10) At 15, 30, 60 and 90 min, samples were mixed, and then 20 μL of each sample was transferred to wells containing 100 μL of ice-cold stop solution at each time point and mixed. • 11) Medium control (MC) sample plates (labeled as TO-MC and T90-MC) were prepared at TO and T90 by adding the same components to each well except for the cell suspension. […]
# (§5) The elimination rate constant k of the test compound and the control compound in hepatocytes was calculated by plotting the logarithm of the residual ratio vs time, and the half-life (T1/2) and in vitro intrinsic clearance rate (CLint) were obtained by using the elimination rate k. […]
# [4] = test system: Rat hepatocytes; experiment: Hepatocytes metabolic stability (HMS), rat hepatocytes; type: in vitro ADME; conditions: for Intrinsic hepatic clearance, Rat: CLint(liver)
# Experimental: as §1, §2, §3, §4, §5
# [5] = test system: MDR1-MDCK II cells; conditions: for Papp (AB) / Papp (BA): 2 μM, pH 7.4, […]; for Papp (AB): A to B; for Papp (BA): B to A
# Experimental: Membrane Permeability MDR1 Test
# MDR1-MDCK II cells are Madin-Darby canine kidney cells transfected with human MDR1 gene, which can stably express high P-gp. The aim of this study was to test the bidirectional permeability of compounds across the MDR1-MDCK II cell model and to assess whether they are transported by efflux.
# Test compounds were diluted in transport buffer (HBSS, 10 mM Hepes with DMSO, pH 7.4) to a concentration of 2 μM (DMSO<1%) and applied on the apical or basolateral side of the cell monolayer. The compound to be tested was tested in duplicate in the direction of from A to B or from B to A, digoxin was tested at 10 μM in the direction of from A to B or from B to A, while nadolol and metoprolol were tested at 2 μM from A to B. Plates were incubated in a CO2 incubator at 37±1° C. in a saturated humidity of 5% CO2 for 2.5 hours without shaking. In addition, the efflux ratio of each compound was determined, and for the test and reference compounds quantitation was conducted. Analysis was carried out by LC/MS/MS according to the peak area ratio of analyte/IS. After the transport assay, the Lucifer Yellow exclusion assay was used to determine integrity of the cell monolayer. The buffer was removed from the apical and basolateral compartments, then 75 μL of 100 μM luciferin yellow was added to the transport buffer, and 250 μL of the transport buffer was added to the apical and basolateral compartments, respectively. The plate was incubated at 37° C., 5% CO2 and saturated humidity for 30 minutes without shaking. After 30 minutes of incubation, 20 μL of luciferin yellow sample was withdrawn from the apical, followed by the addition of 60 μL of transport buffer. An 80 μL luciferin yellow sample was then collected basolaterally.
# The apparent permeability coefficient (Papp, cm/s), efflux rate and recovery rate were calculated using the following formulae.
# [formula] dCr/dt is the cumulative concentration of the compound at the receiver end over unit time (μM/s); Vr is the volume of the receiver end solution (0.075 mL and 0.250 mL for the apical and basal ends, respectively); Ais the relative surface area (0.0804 cm^2) of the cell monolayer; C0 is the initial concentration (nM) of the test substance at the administration end or the peak area ratio of the reference substance.
# [formula] C0 is the initial concentration (nM) of the test substance at the administration end or the peak area ratio of the reference substance; Va is the volume of the administration end (0.075 mL for the apical side and 0.250 mL for the basal side); Cd and Cr are the final concentration (nM) of the test substance at the administration end and the receiver end or the peak area ratio of the reference substance.
# [6] = molecular target: CYP1A2 (Homo sapiens (Human), UniProt P05177); experiment: Cytochrome P450 isozyme inhibitory activity test, CYP1A2; type: in vitro ADME; conditions: human liver microsomes; read-out: Cytochrome P450 isoenzyme IC50, CYP1A2
# CYP1A2, sequence (P05177 whole entry): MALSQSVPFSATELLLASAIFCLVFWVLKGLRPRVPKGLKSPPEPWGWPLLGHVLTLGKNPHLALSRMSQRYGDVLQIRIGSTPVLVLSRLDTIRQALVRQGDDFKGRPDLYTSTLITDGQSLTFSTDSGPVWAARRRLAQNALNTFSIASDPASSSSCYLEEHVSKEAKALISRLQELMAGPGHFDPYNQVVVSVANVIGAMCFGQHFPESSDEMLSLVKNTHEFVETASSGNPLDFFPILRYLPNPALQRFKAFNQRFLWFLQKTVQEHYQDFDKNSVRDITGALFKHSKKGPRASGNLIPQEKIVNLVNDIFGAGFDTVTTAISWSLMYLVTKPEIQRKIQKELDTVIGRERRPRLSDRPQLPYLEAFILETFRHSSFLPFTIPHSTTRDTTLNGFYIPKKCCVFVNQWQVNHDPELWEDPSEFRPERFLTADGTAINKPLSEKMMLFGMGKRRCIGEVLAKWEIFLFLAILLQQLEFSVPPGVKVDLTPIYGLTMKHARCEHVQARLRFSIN
# Experimental: (§6) Cytochrome P450 Isozyme Inhibitory Activity Test
# (§7) The inhibitory activities of test compounds against different subtypes of human cytochrome P450 isoenzymes were determined.
# (§8) Preparing test compounds, standard inhibitor (100×final concentration) and mixed substrate working solutions; Microsomes (purchased from Corning Inc) frozen in −80° C. freezer was taken out and thawed. 20 μL of the test compound and standard inhibitor solution were added to the corresponding wells, and at the same time 20 μL of the corresponding solvent was added to the no inhibitor control wells (NIC) and blank control wells (Blank); then 20 μL of mixed substrate solution was added to the corresponding wells, except for Blank wells (adding 20 μL of Phosphate Buffer (PB) to Blank wells); the human liver microsome solution was prepared (marking the date after use and putting back in the refrigerator immediately), then 158 μL of human liver microsome solution was immediately added to all wells; the above sample plate was pre-incubated in a 37° C. water bath, and then coenzyme factor (NADPH) solution was prepared; 10 minutes later, 20 μL of NADPH solution was added to all wells. […]
# [7] = molecular target: CYP2C9 (Homo sapiens (Human), UniProt P11712); experiment: Cytochrome P450 isozyme inhibitory activity test, CYP2C9; type: in vitro ADME; conditions: human liver microsomes; read-out: Cytochrome P450 isoenzyme IC50, CYP2C9
# CYP2C9, sequence (P11712 whole entry): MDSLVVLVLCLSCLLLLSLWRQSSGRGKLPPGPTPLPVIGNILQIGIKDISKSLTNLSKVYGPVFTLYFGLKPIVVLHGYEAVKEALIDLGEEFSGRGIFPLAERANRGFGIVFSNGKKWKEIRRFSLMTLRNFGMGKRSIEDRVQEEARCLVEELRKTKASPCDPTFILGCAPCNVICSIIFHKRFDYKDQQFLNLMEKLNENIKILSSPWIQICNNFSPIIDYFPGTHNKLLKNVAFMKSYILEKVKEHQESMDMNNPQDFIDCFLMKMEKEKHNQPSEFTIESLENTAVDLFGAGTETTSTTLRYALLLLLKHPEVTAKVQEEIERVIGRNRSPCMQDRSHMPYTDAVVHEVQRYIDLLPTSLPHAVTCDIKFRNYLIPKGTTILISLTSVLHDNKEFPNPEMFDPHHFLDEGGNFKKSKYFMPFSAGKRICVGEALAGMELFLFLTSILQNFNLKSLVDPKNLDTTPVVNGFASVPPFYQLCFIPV
# Experimental: as §6, §7, §8
# [8] = molecular target: CYP2C19 (Homo sapiens (Human), UniProt P33261); experiment: Cytochrome P450 isozyme inhibitory activity test, CYP2C19; type: in vitro ADME; conditions: human liver microsomes; read-out: Cytochrome P450 isoenzyme IC50, CYP2C19
# CYP2C19, sequence (P33261 whole entry): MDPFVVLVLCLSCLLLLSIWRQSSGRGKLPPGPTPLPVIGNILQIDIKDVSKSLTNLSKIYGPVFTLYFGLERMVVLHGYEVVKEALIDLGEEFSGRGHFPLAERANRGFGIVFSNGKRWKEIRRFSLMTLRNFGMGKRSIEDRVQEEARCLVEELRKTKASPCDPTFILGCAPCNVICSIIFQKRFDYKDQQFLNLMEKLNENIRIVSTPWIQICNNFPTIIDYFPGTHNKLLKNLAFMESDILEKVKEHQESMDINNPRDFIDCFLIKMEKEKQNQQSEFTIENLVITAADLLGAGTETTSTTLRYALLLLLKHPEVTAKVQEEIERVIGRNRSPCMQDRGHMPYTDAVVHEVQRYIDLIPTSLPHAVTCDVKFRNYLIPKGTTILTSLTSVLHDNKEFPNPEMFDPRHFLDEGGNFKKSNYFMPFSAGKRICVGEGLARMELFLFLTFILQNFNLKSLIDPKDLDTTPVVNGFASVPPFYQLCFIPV
# Experimental: as §6, §7, §8
# [9] = molecular target: CYP2D6 (Homo sapiens (Human), UniProt P10635); experiment: Cytochrome P450 isozyme inhibitory activity test, CYP2D6; type: in vitro ADME; conditions: human liver microsomes; read-out: Cytochrome P450 isoenzyme IC50, CYP2D6
# CYP2D6, sequence (P10635 whole entry): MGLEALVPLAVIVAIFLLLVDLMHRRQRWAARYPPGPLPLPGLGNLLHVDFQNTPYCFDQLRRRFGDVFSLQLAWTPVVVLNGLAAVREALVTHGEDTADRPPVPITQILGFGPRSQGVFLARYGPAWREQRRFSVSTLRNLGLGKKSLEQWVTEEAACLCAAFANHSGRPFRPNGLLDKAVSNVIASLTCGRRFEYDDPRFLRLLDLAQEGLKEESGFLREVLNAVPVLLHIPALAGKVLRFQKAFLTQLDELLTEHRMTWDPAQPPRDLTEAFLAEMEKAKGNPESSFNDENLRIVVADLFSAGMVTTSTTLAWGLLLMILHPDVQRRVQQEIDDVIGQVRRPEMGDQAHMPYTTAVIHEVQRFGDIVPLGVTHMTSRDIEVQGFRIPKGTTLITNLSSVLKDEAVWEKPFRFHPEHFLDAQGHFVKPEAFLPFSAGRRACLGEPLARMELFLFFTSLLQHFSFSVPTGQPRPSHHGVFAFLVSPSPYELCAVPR
# Experimental: as §6, §7, §8
# [10] = molecular target: CYP3A4-M (Homo sapiens (Human), UniProt P08684); experiment: Cytochrome P450 isozyme inhibitory activity test, CYP3A4-M; type: in vitro ADME; conditions: human liver microsomes; read-out: Cytochrome P450 isoenzyme IC50, CYP3A4-M
# CYP3A4-M, sequence (P08684 whole entry): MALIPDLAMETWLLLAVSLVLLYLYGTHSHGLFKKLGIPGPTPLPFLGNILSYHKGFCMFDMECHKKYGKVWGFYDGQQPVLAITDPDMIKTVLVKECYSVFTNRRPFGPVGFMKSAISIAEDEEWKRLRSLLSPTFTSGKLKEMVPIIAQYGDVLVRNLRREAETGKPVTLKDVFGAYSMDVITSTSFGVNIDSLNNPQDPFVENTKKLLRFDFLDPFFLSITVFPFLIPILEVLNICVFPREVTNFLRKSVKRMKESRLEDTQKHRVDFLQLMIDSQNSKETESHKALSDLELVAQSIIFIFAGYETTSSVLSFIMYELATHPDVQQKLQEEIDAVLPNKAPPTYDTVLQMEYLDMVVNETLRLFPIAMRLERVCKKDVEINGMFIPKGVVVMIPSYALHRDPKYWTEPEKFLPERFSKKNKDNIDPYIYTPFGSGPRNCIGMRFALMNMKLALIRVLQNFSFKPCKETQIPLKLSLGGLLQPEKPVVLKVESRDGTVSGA
# Experimental: as §6, §7, §8
# [11] = Pharmacokinetics in SD rats
# Experimental: Pharmacokinetics of test compounds in SD rats
# Sprague Dawley Rat (male, 180-350 g, 6-10 weeks old, Charles River Laboratories, Beijing)
# Six male SD rats were divided into 2 groups. […] Whole blood was collected at 0 (the gavage group only), 0.083 (intravenous only), 0.25, 0.5, 1, 2, 4, 8 and 24 hours after administration. Whole blood was centrifuged at 3200 g at 4° C. for 10 min to obtain plasma.
Structure (SMILES),Clearance in human hepatocytes (in words) [3],"Intrinsic hepatic clearance, Human [3] [mL/min/kg]",Clearance in rat hepatocytes (in words) [4],"Intrinsic hepatic clearance, Rat [4] [mL/min/kg]",Permeability (in words) [5],Papp (AB) [5],Papp (BA) [5],IC50 [6] [µM],IC50 [7] [µM],IC50 [8] [µM],IC50 [9] [µM],IC50 [10] [µM],further results
N#Cc1cn(-c2ccc(C(=O)O)c(O)c2)c2ccccc12 [PF-06743649],–,–,–,–,–,–,–,–,–,–,–,–,Side effects after administration in clinical phase I trial [1]: acute PF-06743649-induced renal injury side effects
Cc1nc(-c2ccc(OCC(C)C)c(C#N)c2)sc1C(=O)O [febusteine],–,–,–,–,–,–,–,–,–,–,–,–,Patients who do not achieve the expected goal of lowing uric acid [2]: 40% to 52
N#Cc1sc(-c2ccc(C(=O)O)c(O)c2)c2c1CCC2 [Compound 3],moderate clearance,48.2,high clearance,1097.9,high permeability,38.63 10^−6 cm/s,10.99 10^−6 cm/s,> 50,14.8,> 50,> 50,> 50,–
N#Cc1sc(-c2ccc(C(=O)O)c(O)c2)c2c1CCC(F)(F)C2 [Compound 2],moderate clearance,31.8,high clearance,188.4,high permeability,26.42 10^−6 cm/s,6.63 10^−6 cm/s,> 50,18.1,> 50,> 50,> 50,Pharmacokinetic properties (in words) [11]: good pharmacokinetic properties; AUC0-inf ([11]; 2.89 mpk Intravenous injection): 41.8 µM·h; C0 ([11]; 2.89 mpk Intravenous injection): 96.6 µM; Cl ([11]; 2.89 mpk Intravenous injection): 3.59 mL/min/kg; T1/2 ([11]; 2.89 mpk Intravenous injection): 3.74 h; Vdss ([11]; 2.89 mpk Intravenous injection): 0.32 L/kg; AUC0-inf ([11]; 8.58 mpk Oral): 86.6 µM·h; Cmax ([11]; 8.58 mpk Oral): 27.5 µM; T1/2 ([11]; 8.58 mpk Oral): 2.47 h; Tmax ([11]; 8.58 mpk Oral): 0.5 h; Bioavailability ([11]; 8.58 mpk Oral vs 2.89 mpk Intravenous injection): 62.1%; Oral bioavailability (in words) ([11]; oral): high oral bioavailability
